Experimental data as given in patent publication US20230357261A1, “ARYL HYDROCARBON RECEPTOR LIGANDS AND THEIR ANALOGUES FOR THE PREVENTION AND TREATMENT OF INFLAMMATORY DISORDERS” (The Johns Hopkins University, priority 2020, published 2023).
“Also recorded” adds a separate entry of the source. One block for each molecule: values may come before it.

Key:
AHR [1] = assay: AHR activation in mouse ileal enteroids (Cyp1a1 qRT-PCR); assay type: cell-based; conditions: wildtype mouse enteroids, tested compound 40 uM, overnight
Procedure: (§1) Primary intestinal crypt cultures (enteroids) were generated from the ileum of neonatal (p7-p11) wild type and Ahr′ mice at as described, Neal et al., 2012, and maintained in Matrigel (Corning). The enteroids were digested and passed using TrypLE Express (Gibco) weekly, and used between passage 3 and 10 for all experiments. The enteroids were pre-treated with I3C ([…], 12 h), A18 (20 μM, 12 h) or human breast milk (100 μL/mL, Innovative Research, prepared by 5-minute-cenrifugation at 12,000 g and then filtration of supernatant through a 0.22-μm filter) and then treated with LPS (50 μg/mL) for 4 hours for further analysis.
(§2) Primary intestinal crypt cultures (enteroids) were generated from the ileum of neonatal (p7-p11) mice at as described, Neal et al., 2012, and maintained in Matrigel (Corning). The enteroids were digested and passed using TrypLE Express (Gibco) weekly, and used between passage 3 and 10 for all experiments. The enteroids were pre-treated with tested compound (40 uM, overnight) and then treated with LPS (50 μg/mL) for 6 hours for further analysis.
(§3) Total RNA was isolated using the RNeasy mini kit (Qiagen) and complementary DNA was synthesized from 0.5 μg RNA using QuantiTect Reverse Transcription kit (Qiagen) following the manufacturer's protocols. The mRNA quantification was performed on the Bio-Rad CFX96 Real-Time System (Bio-Rad) using iTaq™ universal SYBR® Green supermix (Bio-Rad) and the primers listed in Table 2. The relative mRNA expression levels were normalized against the expression of the housekeeping gene ribosomal protein lateral stalk subunit P0 (Rplp0).

AHR [2] = assay: AHR activation (Cyp1a1) in ileum of mice in the NEC model (Example 3); assay type: in vivo; conditions: mouse NEC model; 20 mg/kg/day by oral gavage for 4 days
Excerpt: (§4) Experimental NEC was induced in 7-day old mice as we have previously described, Good et al., 2015; Sodhi et al., 2018; Egan et al., 2016, by gavage feeding newborn mice with formula containing Similac Advance infant formula (Abbott Nutrition): Esbilac (PetAg) canine milk replacer, 2:1 ratio, which was supplemented with enteric bacteria made from a stock created from a specimen obtained from an infant with surgical NEC five times per day.
(§5) Additionally, the mice were subjected to hypoxia (5% 02-95% N2) for 10 min in a hypoxia chamber (Billups-Rothenberg) twice daily for 4 days. The compound #169, compound #243, compound #247 or compound #263 administered by oral gavage during the induction of NEC at the dose of 20 mg/kg body weight/day.
(§6) Age-matched breast milk-fed mouse pups were used as healthy controls. Evaluation of ileal histology by H&E staining and expression of pro-inflammatory cytokines by qRT-PCR at a fixed point in the terminal ileum 2-cm proximal to the cecum, were used to determine the disease severity.
as §3

TLR4 = TLR4 signaling in mouse ileal enteroids (LPS-induced Tnf-a qRT-PCR); assay type: cell-based; conditions: wildtype mouse enteroids; tested compound 40 uM overnight, then LPS 50 μg/mL 6 hours
Procedure: as §1, §2, §3

mouse NEC model = assay: Experimental NEC in newborn mice (Example 3); assay type: in vivo; conditions: 20 mg/kg body weight/day for 4 days; for severity of NEC: 20 mg/kg/day
Excerpt: as §4, §5, §6, §3

SMILES: Cc1c(OCC(F)(F)F)ccnc1CSc1nc2ccc(C#N)cc2[nH]1 [compound 19, 5-cyano-2-(((3-methyl-4-(2,2,2-trifluoroethoxy)pyridin-2-yl)methyl)thio)-1H-benzo[d]-imidazole]
- melting point: 204 to 205 °C

SMILES: CCOc1ccnc(CSc2nc3ccc(F)cc3[nH]2)c1C [compound 21, 5-fluoro-2-(((3-methyl-4-ethoxypyridin-2-yl)methyl)thio)-1H-benzo[d]imidazole]
- melting point: 102 to 104 °C

SMILES: Cc1c(Oc2ccccc2)ccnc1CSc1nc2ccc(F)cc2[nH]1 [compound 22, 5-fluoro-2-(((3-methyl-4-phenoxypyridin-2-yl)methyl)thio)-1H-benzo[d]imidazole]
- melting point: 134 to 136 °C

SMILES: Cc1c(OCc2ccccc2)ccnc1CSc1nc2ccc(F)cc2[nH]1 [compound 23, 5-fluoro-2-(((3-methyl-4-benzyloxypyridin-2-yl)methyl)thio)-1H-benzo[d]-imidazole]
- melting point: 175 to 177 °C

SMILES: Cc1ccc2nc([S+]([O-])Cc3nccc(OCC(F)(F)F)c3C)[nH]c2c1 (stereo not shown) [compound 24, 5-methyl-2-(((3-methyl-4-(2,2,2-trifluoroethoxy)pyridin-2-yl)methyl)sulfinyl)-1H-benzo[d]-imidazole]
- melting point: > 133 °C (dec.)

SMILES: Cc1ccc2nc(S(=O)(=O)Cc3nccc(OCC(F)(F)F)c3C)[nH]c2c1 [compound 25, 5-methyl-2-(((3-methyl-4-(2,2,2-trifluoroethoxy)pyridin-2-yl)methyl)sulfonyl)-1H-benzo[d]-imidazole]
- melting point: 193 to 194 °C

SMILES: COc1ccnc(CS(=O)(=O)c2nc3cc(F)ccc3[nH]2)c1C [compound 26, 5-fluoro-2-(((3-methyl-4-methoxypyridin-2-yl)methyl)sulfonyl)-1H-benzo[d]-imidazole]
- melting point: 192 to 193 °C

SMILES: CCOc1ccnc(CS(=O)(=O)c2nc3ccc(F)cc3[nH]2)c1C [compound 27, 5-fluoro-2-(((3-methyl-4-ethoxypyridin-2-yl)methyl)sulfonyl)-1H-benzo[d]-imidazole]
- melting point: 177 to 178 °C

SMILES: Cc1c(OCc2ccccc2)ccnc1CS(=O)(=O)c1nc2ccc(F)cc2[nH]1 [compound 29, 5-fluoro-2-(((3-methyl-4-benzyloxypyridin-2-yl)methyl)sulfonyl)-1H-benzo[d]-imidazole]
- melting point: 185 to 188 °C

SMILES: c1ccc2[nH]c(COc3ncnc4ccccc34)nc2c1 [compound #247]
- activation of AHR signaling in mouse enteroids (Cyp1a1, FIG. 15a) (AHR [1]): activated AHR signaling
- expression of Cyp1a1 in vivo (ileum) (AHR [2]): significantly induced the expression of Cyp1a1
- inhibition of TLR4 signaling in mouse enteroids (Tnf-a induction by LPS, FIG. 15b, FIG. 19) (TLR4): significantly inhibited TLR4 signaling
- histological injury (H&E, ileum) (mouse NEC model): reduced histological injury
- severity of NEC (mouse NEC model): did not reduce the severity of NEC; also recorded: didn't not reduce the severity of NEC

SMILES: N#C/C(=C(/N)c1ncnc2ccccc12)c1nc2ccccc2[nH]1 [compound #263]
- expression of Cyp1a1 in vivo (ileum) (AHR [2]): significantly induced the expression of Cyp1a1
- inhibition of TLR4 signaling in mouse enteroids (Tnf-a induction by LPS, FIG. 15b, FIG. 19) (TLR4): significantly inhibited the TLR4 signaling
- expression of IL-1b, IL-6, Tnf-a and Lcn2 in the intestinal epithelium (mouse NEC model): reduced expression
- histological injury (H&E, ileum) (mouse NEC model): reduced histological injury
- severity of NEC (mouse NEC model): significantly reduced the severity of experimental NEC; also recorded: protects against experimental NEC

Second part, led by results:

- melting point: 198 to 200 °C (dec.)
SMILES: c1ccc2[nH]c(CSc3ncnc4ccccc34)nc2c1

- melting point: 153 to 155 °C
SMILES: Cc1ccc2nc(SCc3nccc(OCC(F)(F)F)c3C)[nH]c2c1 [compound 18, 5-methyl-2-(((3-methyl-4-(2,2,2-trifluoroethoxy)pyridin-2-yl)methyl)thio)-1H-benzo[d]imidazole]

- melting point: 153 to 155 °C
SMILES: COc1ccnc(CSc2nc3ccc(F)cc3[nH]2)c1C [compound 20, 5-fluoro-2-(((3-methyl-4-methoxypyridin-2-yl)methyl)thio)-1H-benzo[d]imidazole]

- melting point: 155 to 157 °C
SMILES: Cc1c(Oc2ccccc2)ccnc1CS(=O)(=O)c1nc2ccc(F)cc2[nH]1 [compound 28, 5-fluoro-2-(((3-methyl-4-phenoxypyridin-2-yl)methyl)sulfonyl)-1H-benzo[d]-imidazole]

- activation of AHR signaling in mouse enteroids (Cyp1a1, FIG. 15a) (AHR [1]): activated AHR
- activation of AHR signaling in mouse enteroids (Cyp1a1, FIG. 15a) (AHR [1]; listed as #169): activated AHR signaling
- expression of Cyp1a1 in vivo (ileum) (AHR [2]): did not induce the expression of Cyp1a1
SMILES: Cc1cc2c(=O)n(Cc3ccco3)c(SCc3nc4ccccc4[nH]3)nc2s1 [compound #169]
- inhibition of TLR4 signaling in mouse enteroids (Tnf-a induction by LPS, FIG. 15b, FIG. 19) (TLR4): significantly inhibited TLR4 signaling
- histological injury (H&E, ileum) (mouse NEC model): reduced histological injury
- severity of NEC (mouse NEC model): did not reduce the severity of NEC; also recorded: didn't not reduce the severity of NEC

- activation of AHR signaling in mouse enteroids (Cyp1a1, FIG. 15a) (AHR [1]): activated AHR signaling
- expression of Cyp1a1 in vivo (ileum) (AHR [2]): did not induce the expression of Cyp1a1
SMILES: c1ccc2[nH]c(CSc3ncnc4ccccc34)nc2c1 [compound #243]
- inhibition of TLR4 signaling in mouse enteroids (Tnf-a induction by LPS, FIG. 15b, FIG. 19) (TLR4): significantly inhibited TLR4 signaling
- histological injury (H&E, ileum) (mouse NEC model): reduced histological injury
- severity of NEC (mouse NEC model): did not reduce the severity of NEC; also recorded: didn't not reduce the severity of NEC
